Assay results reported in patent publication US9624161B2 (priority 2009, dated 2017).

Columns and labels:
healthy human subjects = experiment: Single and multiple dose studies in healthy human subjects; type: in vivo; settings: for Subjects with decreased total testosterone levels: multiple doses
Method: There were observations of elevated ALT levels above the upper limit of normal in four subjects in the multiple dose study (3 subjects in the 1000 mg group and 1 subject in the 600 mg group). The highest single observed value of ALT was 129 IU/L or 2.6 times the upper limit of normal. Aspartate aminotransferase levels were also elevated in this subject to 1.9 times the upper limit of normal.
Serum total testosterone levels were assessed throughout the multiple doses study. Total testosterone levels were decreased in 100% (10/10) of the subjects in the 600 mg dose group and 90% (9/10) of the subjects in the […] dose group. The levels of total testosterone were decreased to below the lower limit of normal in 40% (4/10) of the subjects in the 600 mg dose group and 50% (5/10) of the subjects in the 1000 mg dose group.

[1] = system: isolated canine Purkinje fibers; experiment: Action potential duration in isolated canine Purkinje fibers in vitro; settings: 10 and 100 μM
Method: Compound IV exerts little or no in vitro inhibitory effects (IC50≧300 μM) on the hERG channel.

intact male rats = experiment: Bone preservation despite reduction of LH and testosterone in rats (oral); type: in vivo, rat
[2] = system: morphine dependent rat model; experiment: Morphine dependent rat model of hot flashes (tail skin temperature); type: in vivo; settings: 5, 10, 15 and 30 mg/kg (FIG. 13)
Method: In addition to the similarities to the human condition, this experimental animal model has a short turn around time which makes it a useful high throughput screening tool for identifying compounds that can alleviate vasomotor symptoms using the tail skin temperature (TST). TST probes TA-40 (Data Sciences International, MN) were taped to the base of the tails and baseline temperatures were obtained for 15 minutes. After 15 minutes the animals were treated with naloxone (1 mg/kg, SQ) to reverse the effects of the morphine. Tail skin temperature (TST) was measured for one hour post-naloxone treatment with a sampling frequency of 5 secs throughout the course of the experiment. Following the data acquisition, the moving average of the temperature recorded every 60 seconds for each animal was calculated and further analyzed. Baseline temperature was computed as the average temperature acquired over the 15 minutes preceding naloxone administration. The area under the curve (AUC) was calculated by subtracting all the values post-naloxone administration from the baseline using a linear trapezoid method.

SMILES: O=C(c1ccc(O)c(F)c1)N(c1ccc(O)cc1)c1ccc(F)cc1 [Compound IV, 3-fluoro-N-(4-fluorophenyl)-4-hydroxy-N-(4-hydroxyphenyl)benzamide]
- Subjects with total testosterone below the lower limit of normal (healthy human subjects; 600 mg dose group): 40%
- Subjects with decreased total testosterone levels (healthy human subjects; 600 mg dose group): 100%
- Subjects with decreased total testosterone levels (healthy human subjects; 997 mg dose group): 90%
- Subjects with total testosterone below the lower limit of normal (healthy human subjects; 1000 mg dose group): 50%
- Time for total testosterone to return to normal after discontinuation (healthy human subjects; all subjects): ≤ 6 days
- Elevations in total bilirubin (healthy human subjects; any subject in the trial): no observations of elevations
- Well tolerated single doses (healthy human subjects; healthy human subjects): up to 1247 mg
- Well tolerated multiple doses (healthy human subjects; healthy human subjects, up to 10 days): up to 997 mg
- Aspartate aminotransferase elevation in the same subject (healthy human subjects; multiple dose study): 1.9 times the upper limit of normal
- Subjects with ALT above the upper limit of normal (healthy human subjects; multiple dose study, 600 mg group): 1 subject
- Subjects with ALT above the upper limit of normal (healthy human subjects; multiple dose study, 1000 mg group): 3 subjects
- Subjects with total testosterone below 1.73 nmol/L (castrate range) (healthy human subjects; multiple doses study): no subject
- APD50 [1]: dose-dependently decreased
- APD90 [1]: dose-dependently decreased
- Bone loss associated with LH suppression (intact male rats): completely prevented the bone loss
- Effect on hot flashes (tail skin temperature after naloxone) [2]: attenuated hot flashes
